Source: publication PMC9475137, “Sesquiterpene lactones from Artemisia vulgaris L. as potential NO inhibitors in LPS-induced RAW264.7 macrophage cells” (Frontiers in Chemistry, 2022)
Entries after “also recorded” stand apart in the source; their conditions may differ.

What was measured:
Type in all cases: cell-based
[1] = Cytotoxicity against RAW264.7 cells (CCK8); conditions: mouse, 24 h incubation, 3.125–200 μM
Protocol: For the cytotoxicity assay, RAW 264.7 cells were grown in DMEM containing 10% FBS and cultured at 37°C. Then, the cells were seeded in a 96-well plate (1 × 10^4 cells/well) before the cells were incubated for 24 h in various concentrations of compounds (3.125–200 μM). Cell viability was examined using a CCK8-kit. The CCK8 solution (5 µl) was added to each well and incubated for 1–2 h at 37°C. The OD value at 450 nm was quantified by Graphpad software, and the corresponding 50% cytotoxic concentration (CC50) of the compounds was subsequently obtained.

[2] = test system: NO production in LPS-induced RAW264.7 cells; assay: Inhibition of NO production in LPS-induced RAW264.7 macrophages (Griess reagent); conditions: for IC50: Mus musculus, RAW264.7, pretreated 1 h with compounds (0.25–4 μM), LPS 1 μg/ml 18 h, Mean ± SD, read-out: IC50 (μM), NO inhibition toward LPS-induced RAW264.7 cells
Protocol: The level of accumulated nitrite in the culture media reflected the level of NO using the classic Griess reagent (Beyotime, Jiangsu, China). The RAW264.7 cells were seeded in a 96-well plate with a 6 ×10^4 cells/ml density for the indicated time. Then, the cells were pretreated for 1 h with test compounds (0.25–4 μM), followed by stimulation with LPS (1 μg/ml) for 18 h. Finally, 50 ul of the culture supernatant was mixed with an equal amount of the Griess reagent, and the optical densities at 570 nm were read using a microplate reader. The nitric oxide concentration of the samples was calculated according to the standard curve.

iNOS = iNOS expression in LPS-induced RAW264.7 cells (quantitative real-time PCR and Western blotting); conditions: LPS-induced RAW264.7 macrophages; qPCR and Western blotting; compound 1 at 4 μM compared with dexamethasone
Protocol: (§1) RAW264.7 cells were seeded in a six-well plate (10 × 10^5 cells/well) for the indicated time. Cells were pretreated with compound 1 (0.5, 1, and 4 μM) for 1 h and then stimulated with LPS (1 ug/mL) for 18 h. Total cellular RNA was extracted with Trizol reagent (TIANGEN, Beijing, China). One microgram of RNA per sample was reverse-transcribed into cDNA using the PrimeScript RT Reagent Kit (TAKARA, Dalian, China). qPCR assays were performed by the CFX96 Touch Real-Time PCR Detection System (Bio-Rad). The following primers were used: iNOS (forward, 5′-AAACCCCAGGTGCTATTCCC-3′; reverse, 5′-TGGGTCCTCTGGTCAAACTC-3′), COX-2 (forward, 5′-ATTCCAAACCAGCAGACTCATA-3′; reverse, CTTGAGTTTGAAGTGGTAACCG-3′), and GAPDH (forward, 5′- GTCATTGAGAGCAATGCCAG-3′; reverse, 5′-GTGTTCCTACCCCCAATGTG-3′). […]
(§2) RAW264.7 cells with the indicated treatment were harvested and treated in a RIPA lysis buffer (Beyotime, Shanghai, China) containing a protease and phosphatase inhibitor cocktail (Beyotime, Shanghai, China) to obtain the lysates. Then, the total proteins were measured using the bicinchoninic acid (BCA) protein assay kit (Beyotime, Shanghai, China) and regulated by a loading buffer and the RIPA lysis buffer. […] Finally, the protein bands were detected using the ImageJ software (Bio-Rad, Hercules, CA, United States).

COX-2 = COX-2 expression in LPS-induced RAW264.7 cells (quantitative real-time PCR and Western blotting); conditions: LPS-induced RAW264.7 macrophages; qPCR and Western blotting; compound 1 at 4 μM compared with dexamethasone
Protocol: as §1, §2

Compound	CC50 at 24 h [1] [µM]	IC50 [2] [µM]	NO production inhibitory effect, in words (ranking / comparison with positive control dexamethasone) ([2]; LPS-stimulated RAW264.7 cells)	expression of iNOS (iNOS)	expression of COX-2 (COX-2)
C=C1C(=O)OC2C1C(OC(=O)CC)CC(C)(OC)C1C(=O)C=C(C)C21 (stereo not drawn) [Compound 10, Artemvulactone Q]	> 10	2.1 ± 0.1			
C=C1C(=O)O[C@H]2[C@H]1[C@@H](OC(=O)/C(C)=C\C)C=C(C)[C@]1(O)CC=C(C)[C@H]21 [Compound 1, Artemvulactone H]	> 10	1.1 ± 0.1	most active	reduced more expressions of iNOS and COX-2 than the positive drug; also recorded: suppressed	reduced more expressions of iNOS and COX-2 than the positive drug; also recorded: suppressed
C=C1C(=O)O[C@H]2[C@H]1[C@@H](OC(=O)C(C)CC)C=C(C)[C@]1(O)CC=C(C)[C@H]21 (stereo partly drawn) [Compound 2, Artemvulactone I]	> 10	1.2 ± 0.3			
C=C1C(=O)O[C@H]2[C@H]1[C@@H](OC(=O)C(C)C)C=C(C)[C@]1(O)CC=C(C)[C@H]21 [Compound 18, 8-epi-isobutyrylrupicolin]	> 20	1.1 ± 0.1			
C=C1C(=O)O[C@H]2[C@H]1[C@@H](OC(=O)/C(C)=C\C)CC(=C)[C@]1(O)C[C@H]3O[C@@]3(C)[C@H]21 [Compound 16, 8-angeloyloxy-1α-hydroxy-3α, 4α-epoxy-5α, 7αH-10(14), 11(13)-guaiadien-12,6α-olide]	> 10	1.1 ± 0.2			
C=C1C(=O)O[C@H]2[C@H]1[C@@H](OC(=O)C(C)C)C=C(C)[C@]1(O)C[C@H]3O[C@@]3(C)[C@H]21 [Compound 8, Artemvulactone O]	> 20	3.2 ± 0.1			
C[C@@H]1C[C@H]2[C@@H]3CCC4=CC(=O)C=C[C@]4(C)[C@@]3(F)[C@@H](O)C[C@]2(C)[C@@]1(O)C(=O)CO [Dexamethasone, reference compound]		4.3 ± 0.3			
C=C1C(=O)O[C@H]2[C@H]1[C@@H](OC(=O)C(C)C)CC(=C)[C@]1(O)C[C@H]3O[C@@]3(C)[C@H]21 [Compound 6, Artemvulactone M]	> 20	3.1 ± 0.1			
C=C1C(=O)O[C@H]2[C@H]1[C@@H](OC(=O)CC(C)C)CC(=C)[C@]1(O)C[C@H]3O[C@@]3(C)[C@H]21 [Compound 19, 3α,4α-epoxyrupicolin E]	> 25	1 ± 0.2			
C=C1CC(OC(=O)C(C)=CC)C2C(C)C(=O)OC2C2C(C)=CCC12O (stereo not drawn) [Compound 5, Artemvulactone L]	> 100	> 10			
C=C1C(=O)O[C@@H]2[C@H]3C(C)=CC(=O)C3=C(C)C[C@H](OC(=O)CC)[C@@H]12 [Compound 9, Artemvulactone P]	> 20	1.9 ± 0.8			
C=C1C(=O)O[C@H]2[C@H]1[C@@H](OC(=O)/C(C)=C/C)CC(=C)[C@]1(O)CC=C(C)[C@H]21 [Compound 15, 8-epi-Tiglylrupicolin B]	> 10	1.2 ± 0.1			
C=C1C(=O)O[C@H]2[C@H]1[C@@H](OC(=O)C(C)C)CC(=C)[C@]1(O)CC=C(C)[C@H]21 [Compound 17, 8-epi-isobutyrylrupicolin B]	> 20	1.5 ± 0.1			
C=C1C(=O)O[C@H]2[C@H]1[C@@H](OC(=O)CC(C)C)CC(=C)[C@]1(O)CC=C(C)[C@H]21 [Compound 4, Artemvulactone K]	> 20	3.6 ± 0.1			
C=C1C(=O)O[C@H]2[C@H]1[C@@H](OC(=O)CC)C=C(C)[C@]1(O)C[C@H]3O[C@@]3(C)[C@H]21 [Compound 11, Artemvulactone R]	> 15	1.9 ± 0.4			
C=C1C(=O)OC2C1CCC(C)(O)C1(O)C(Cl)C3OC3(C)C21 (stereo not drawn) [Compound 12, Artemvulactone S]	> 40	2.7 ± 0.5			
C=C1C(=O)O[C@H]2[C@H]1[C@@H](OC(=O)CC(C)C)C=C(C)[C@]1(O)CC=C(C)[C@H]21 [Compound 3, Artemvulactone J]	> 10	2.8 ± 0.1			
C=C1C(=O)O[C@H]2[C@H]1[C@@H](OC(=O)/C(C)=C\C)CC(=C)[C@]1(O)CC=C(C)[C@H]21 [Compound 7, Artemvulactone N]	> 20	2.1 ± 0.6			
C=C1C(=O)O[C@H]2[C@H]1[C@@H](OC(=O)C(C)CC)CC(=C)[C@]1(O)CC=C(C)[C@H]21 (stereo partly drawn) [Compound 13, 1α-hydroxy-8α-methylbutyroxy-3(4),10(14),11(13)-trienguai-12,6α-olide]	> 15	1.5 ± 0.1			
C=C1C(=O)O[C@@H]2[C@H]3C(C)=CC(=O)C3=C(C)CC[C@@H]12 [Compound 20, dehydroleucodine]	> 70	1.8 ± 0.1			
C=C1C(=O)O[C@@H]2[C@H]3C(C)=CC(=O)C3=C(C)C[C@H](OC(C)=O)[C@@H]12 [Compound 22, Dehydromatricarin]	> 10	1.8 ± 0.2			
C=C1C(=O)O[C@H]2[C@H]1[C@@H](OC(C)=O)CC(C)=C1C[C@H]3O[C@@]3(C)[C@@H]12 [Compound 21, (+)-Arteglasin A]	> 20	1.2 ± 0.2			
C=C1C(=O)O[C@H]2[C@H]1[C@@H](OC(=O)C=C(C)C)CC(=C)[C@]1(O)CC=C(C)[C@H]21 [Compound 14, 1α-hydroxy-8α-senecioyloxy-3(4),10(14),11(13)-trienguai-12,6α-olide]	> 15	1.4 ± 0.2			
